Results on one compound are retold here after PMC9496155, “Amaryllidaceae Alkaloids Decrease the Proliferation, Invasion, and Secretion of Clinically Relevant Cytokines by Cultured Human Colon Cancer Cells” (Biomolecules, 2022).

Test [1] deals with subpanel of CRC cell lines. Conditions: NCI DTD 60 cell line screen; cited from earlier work.
A further test concerns DLD-1. In words: MTT viability assay, DLD-1. The format is cell-based, human. Conditions: 72 h of exposure, TP53 mutant, mean of six replicates of one experiment, read-out: IC50 Cancer Cell Lines (C) DLD-1. How it is done: (§1) HCT-116 (CCL-247), LoVo (CCL-229), DLD-1 (CCL-221), HT-29 (HTB-38) and CoN (CCD-841) human CRC cells were obtained from the ATCC (Manassas, VA, USA). HCT-116 cells were cultured in Dulbecco’s Modified Eagle’s Medium (DMEM; Corning Cellgro, Corning, NY, USA) for the invasion assays or RPMI-1640 medium (Lonza, Westburg, The Netherlands) for all other assays. The LoVo, DLD-1, and HT-29 cell lines were grown in RPMI-1640 for all experiments. Media were supplemented with 10% fetal bovine serum (FBS; Gibco, Waltham, MA, USA or Greiner Bio-One, Vilvoorde, Belgium), 100 U/mL penicillin, and 100 µg/mL streptomycin (Gibco, Waltham, MA). Cells were grown at 37 °C and 5% CO2 in a humidified atmosphere. The CoN cells were cultured in Eagle’s Minimum Essential Medium (Lonza, Westburg, The Netherlands) supplemented with 10% FBS (South America origin, Greiner Bio-One, Vilvoorde, Belgium). HCT-116 p53^-/- cells were obtained from Denis L.J. LaFontaine, Université Libre de Bruxelles, Brussels, Belgium.
(§2) Effects of compounds on viability were assessed by means of 3-(4,5-dimethylthiazol-2-yl)-2,5-diphenyltetrazolium bromide (MTT; Sigma-Aldrich, Diegem, Belgium) colorimetric assay as previously reported. Briefly, cells were seeded in flat-bottom 96-well plates at the appropriate cell density 24 h prior to the exposure or not to the compound of interest. Each compound was first solubilized in dimethylsulfoxide (DMSO) at 10^−2 M concentration and further diluted in a serial manner in the culture medium. Nine concentrations ranging from 10 nM to 100 µM were tested in sextuplicate within the assay. Evaluation of the cell viability was conducted after 72 h of exposure to the compound by means of MTT assay.
(Tetrazolium dyes change colour on reduction, which living cells bring about.)

Another test relates to IL-8. In words: Luminex assay of IL-8 in HCT-116 and LoVo cell supernatants. Conditions: HCT-116 cells; NAR 80 nM; 24 h; in comparison to LYC. The format is cell-based, human. From the text:
We ordered a customized Luminex® assay to quantify 15 targets at once from Biotechne (reference LXSAHM-15; R&D Systems, Abingdon, U.K.). The 15 targets were chosen on the basis of the literature as follows: the relevant metalloproteinases MMP-1, -2, -7, -9, -13 [49] and the cytokines associated with dismal prognosis or shorter disease-free survival period: C-C motif chemokine ligand (CCL) -4, CCL-22, Flt-3 ligand, IL-1β, IL-2, IL-6, IL-8, interferon gamma (IFNγ), vascular endothelial growth factor (VEGF), and pentraxin-3 [50]. Samples were prepared as follows: HCT-116 or LoVo cells were seeded in 6-well plates and allowed to adhere and grow until they reached 70% confluency. The culture medium was replaced by 1.5 mL of culture medium containing only 0.5% of FBS with or without the compounds to be tested (NAR at 80 nM, LYC at 6 µM, and HAE at 6 µM). After 24 h of treatment, supernatants were collected, aliquoted, and kept frozen at −80 °C. Three independent series of samples were prepared. […] We thus decided to concentrate several aliquots of our supernatant samples by centrifugation of 500 µL of supernatant with Amicon Ultra 0.5 mL filters characterized by a 3 kDa cut-off (UFC500324; Millipore, Merck, Hoeilaart, Belgium) leading to a final volume of 150 µL (3.3 times concentrated). The Luminex® assay was conducted according to manufacturer’s recommendations. […]

The subject of another test is HCT-116 cells. In words: Invasion assay, Matrigel-coated Boyden chambers, HCT-116. The format is cell-based, human. Conditions: 24 h, corrected for adherent cells. Here is the method: Prior to seeding HCT-116 cells in the invasion chambers, the medium was removed and cells were washed twice with phosphate buffered saline and incubated in DMEM lacking FBS for 48 h before seeding at a density of 1 × 10^5 cells/well into the upper portion of Matrigel-coated invasion chambers (Corning Biocoat, Corning, NY, USA), as described previously by our group in [47, 48]. The upper portion of each chamber contained cells suspended in serum-free DMEM containing DMSO vehicle alone or increasing concentrations of the Amaryllidaceae alkaloids NAR, LYC, and HAE. […] The lower portion of each chamber contained DMEM supplemented with 10% FBS. The FBS served as a chemoattractant. A polyethylene terephthalate (PET) membrane, containing 8 μm pores and coated with Matrigel basement membrane matrix, separated the upper and lower portions of the invasion chamber. After 24 h, chambers were removed and the cells that had not invaded were removed from within the chamber using a cotton swab. The cells that had invaded through and adhered to the bottom of the PET membrane separating the chambers were fixed with methanol and stained with 0.5% crystal violet (Sigma-Aldrich, St. Louis, MO, USA). Five random images were taken of the bottom of each membrane using a Cytation 5 Cell Imaging Multi-Mode Reader (Winooski, VT, USA). The cells in each image were counted using Image J (NIH, Bethesda, MD, USA).
To correct for the inhibitory effects of the Amaryllidaceae alkaloids on cell proliferation, cells from the same biological repeat were seeded in parallel in 24-well tissue culture plates at a density of 1 × 10^5 cells/well in DMEM containing 5% FBS (the average of the FBS concentrations in the upper and lower chambers) and supplemented with vehicle or increasing concentrations of the alkaloids. These wells were not coated with Matrigel. The medium was removed, and the adherent cells were trypsinized and counted 24 h after treatment using a hemocytometer. To compare cell invasion across treatments, cell invasion was corrected for adherent cell proliferation and expressed as % vehicle control.

Test [2] concerns Cancer Cell Lines (LoVo, HCT-116^+/+, HCT-116^-/-, HT-29, DLD-1). As to the kind of experiment: MTT viability assay, mean over the five colon cancer cell lines and ratio to CoN. The format is cell-based, human. Here is the method:
as §1, §2

The test system of a further test is MMP-1, -2, -7, -9, -13. In words: Luminex assay of MMP secretion in HCT-116 and LoVo cell supernatants. Type of test: cell-based, human. Conditions: 0.08 µM; 24 h; both cell lines (HCT-116, LoVo). An excerpt:
We ordered a customized Luminex® assay to quantify 15 targets at once from Biotechne (reference LXSAHM-15; R&D Systems, Abingdon, U.K.). The 15 targets were chosen on the basis of the literature as follows: the relevant metalloproteinases MMP-1, -2, -7, -9, -13 [49] and the cytokines associated with dismal prognosis or shorter disease-free survival period: C-C motif chemokine ligand (CCL) -4, CCL-22, Flt-3 ligand, IL-1β, IL-2, IL-6, IL-8, interferon gamma (IFNγ), vascular endothelial growth factor (VEGF), and pentraxin-3 [50]. Samples were prepared as follows: HCT-116 or LoVo cells were seeded in 6-well plates and allowed to adhere and grow until they reached 70% confluency. The culture medium was replaced by 1.5 mL of culture medium containing only 0.5% of FBS with or without the compounds to be tested (NAR at 80 nM, LYC at 6 µM, and HAE at 6 µM). After 24 h of treatment, supernatants were collected, aliquoted, and kept frozen at −80 °C. Three independent series of samples were prepared. […] We thus decided to concentrate several aliquots of our supernatant samples by centrifugation of 500 µL of supernatant with Amicon Ultra 0.5 mL filters characterized by a 3 kDa cut-off (UFC500324; Millipore, Merck, Hoeilaart, Belgium) leading to a final volume of 150 µL (3.3 times concentrated). The Luminex® assay was conducted according to manufacturer’s recommendations. Data were collected on a Bioplex-200 (Bio-Rad, Temse, Belgium).

For the next test, the system named is HCT-116^-/-. As to the kind of experiment: MTT viability assay, HCT-116-/- (p53-null). Conditions: 72 h of exposure, mean of six replicates of one experiment, read-out: IC50 Cancer Cell Lines (C) HCT-116-/-. Type of test: cell-based, human. Here is the method: as §1, §2

SMILES strings stand for the structures.

The GI50 is the concentration that inhibits growth by half. On to `O=C1N[C@@H]2C(=C[C@H](O)[C@@H](O)[C@H]2O)c2cc3c(c(O)c21)OCO3` [NAR, narciclasine], for which the GI50 in test [1] was 45.7 nM. Also, the IC50 in the test on DLD-1 came out at 30 nM; in test [2] (mean over five cancer cell lines, MTT, 72 h, read-out: Mean IC50 Cancer Cells), 33 nM; in the test with HCT-116^-/- it was 29 nM. The IL-8 levels result in the test with IL-8 is listed as “opposite effects”. Besides, the “cell invasion, % of vehicle control” value in the test on HCT-116 cells (0.04 µM) is 41.1 ± 4.3%; with HCT-116 cells (0.08 µM), 13.6 ± 4.8%. For the same compound, the “Ratio N/C” value in test [2] (IC50 CoN / mean IC50 cancer cells) is given as 32. Moreover, in test [2] (MTT IC50 comparison NAR vs PANC), the “times more potent than PANC” value stood at 10 times. Besides, the “secretion of MMP-1, -2, and -7” value in the test with MMP-1, -2, -7, -9, -13 is on record as “markedly decrease”.
